Experimental data: patent US20250223301A1, “KINASE INHIBITORS, PREPARATION METHODS AND USES THEREOF” (InventisBio Co., Ltd., priority 2022, published 2025)

Tests used:
DGKz = DGKz (Homo sapiens (Human), UniProt Q13574); assay: DGK ADP-Glo kinase assay (DGKz); format: biochemical; details: 5 nM DGKz, 15 uM ATP
Experimental: Luminescence was recorded using an Tecan SPARK microplate reader.

PBMC = assay: Human PBMC IL-2 assay; format: cell-based; details: anti-CD3/CD28 stimulation overnight, IL-2 level
Method in brief: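 Healthy-donor frozen PBMC were thawed, rested 4 h at 37 °C and plated at ~200,000 cells/well. Cells were preincubated 60 min at 37 °C with compound solution (10 uM to 0.6 nM, 8 points, 4-fold, as added), then stimulated overnight with anti-CD3/CD28. Supernatant IL-2 was quantified by immunoassay kit and plotted against log compound concentration.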

DGKa = DGKa (Homo sapiens (Human), UniProt P23743); assay: biochemical;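 further: biochemical DGK kinase assay, ADP-Glo luminescence from ADP made by phosphorylating 1,2-dioleoyl-sn-glycerol, 20 min compound preincubation then 40 min reaction at 25 °C, 1% DMSO control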
DGKa, sequence (P23743 whole entry): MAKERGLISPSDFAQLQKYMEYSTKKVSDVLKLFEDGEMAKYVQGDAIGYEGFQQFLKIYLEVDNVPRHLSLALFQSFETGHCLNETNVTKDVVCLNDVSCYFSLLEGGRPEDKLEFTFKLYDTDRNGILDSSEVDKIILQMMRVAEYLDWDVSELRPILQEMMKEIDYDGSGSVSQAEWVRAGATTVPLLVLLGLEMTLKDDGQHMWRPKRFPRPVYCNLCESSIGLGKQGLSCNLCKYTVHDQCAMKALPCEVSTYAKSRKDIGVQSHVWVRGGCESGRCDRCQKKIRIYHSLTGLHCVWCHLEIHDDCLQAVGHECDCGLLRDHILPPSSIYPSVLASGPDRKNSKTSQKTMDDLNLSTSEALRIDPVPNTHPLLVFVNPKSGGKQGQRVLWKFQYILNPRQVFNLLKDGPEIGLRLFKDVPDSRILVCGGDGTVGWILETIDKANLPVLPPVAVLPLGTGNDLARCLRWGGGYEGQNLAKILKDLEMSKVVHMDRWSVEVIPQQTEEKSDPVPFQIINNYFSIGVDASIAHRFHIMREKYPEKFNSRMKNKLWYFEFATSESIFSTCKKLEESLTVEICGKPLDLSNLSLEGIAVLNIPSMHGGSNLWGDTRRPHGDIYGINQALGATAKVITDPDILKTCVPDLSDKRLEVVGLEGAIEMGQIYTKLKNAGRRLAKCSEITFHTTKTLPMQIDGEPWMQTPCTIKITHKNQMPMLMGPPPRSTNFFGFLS
Experimental: The DGKa and DGKz kinase assays were performed using Promega ADP-Glo kit (Promega, Cat #V9102). One microliter test compound was added to a 384-well plate. Reactions were performed in a 5 uL volume by adding 2 uL mixture of DGK enzyme and ATP in assay buffer (50 mM MOPS pH 7.5, 100 mM NaCl, 10 mM MgCl2, 1 mM CaCl2, 0.0025% BSA, and 1 mM DTT). […] The enzyme solution was incubated with test compound at 25 ? for 20 min. […] The reaction was initiated by the addition of 2 uL of substrate solution (7 uM 1.2-dioleoyl-sn-glycerol, 5 mM octyl-b-D-glucopyranoside) in the 5 uL assay volume. The resulting mixture was incubated at 25° C. for 40 minutes. Next, 5 uL of ADP-Glo-reagent was added to the plate and incubated for 40 minutes. Then 10 uL of kinase detection reagent was added and incubated for 30 minutes. Luminescence was recorded using an Tecan SPARK microplate reader. 1% DMSO vehicle was used as control and no enzyme well was used as blank well.

DGKz, sequence (Q13574 whole entry): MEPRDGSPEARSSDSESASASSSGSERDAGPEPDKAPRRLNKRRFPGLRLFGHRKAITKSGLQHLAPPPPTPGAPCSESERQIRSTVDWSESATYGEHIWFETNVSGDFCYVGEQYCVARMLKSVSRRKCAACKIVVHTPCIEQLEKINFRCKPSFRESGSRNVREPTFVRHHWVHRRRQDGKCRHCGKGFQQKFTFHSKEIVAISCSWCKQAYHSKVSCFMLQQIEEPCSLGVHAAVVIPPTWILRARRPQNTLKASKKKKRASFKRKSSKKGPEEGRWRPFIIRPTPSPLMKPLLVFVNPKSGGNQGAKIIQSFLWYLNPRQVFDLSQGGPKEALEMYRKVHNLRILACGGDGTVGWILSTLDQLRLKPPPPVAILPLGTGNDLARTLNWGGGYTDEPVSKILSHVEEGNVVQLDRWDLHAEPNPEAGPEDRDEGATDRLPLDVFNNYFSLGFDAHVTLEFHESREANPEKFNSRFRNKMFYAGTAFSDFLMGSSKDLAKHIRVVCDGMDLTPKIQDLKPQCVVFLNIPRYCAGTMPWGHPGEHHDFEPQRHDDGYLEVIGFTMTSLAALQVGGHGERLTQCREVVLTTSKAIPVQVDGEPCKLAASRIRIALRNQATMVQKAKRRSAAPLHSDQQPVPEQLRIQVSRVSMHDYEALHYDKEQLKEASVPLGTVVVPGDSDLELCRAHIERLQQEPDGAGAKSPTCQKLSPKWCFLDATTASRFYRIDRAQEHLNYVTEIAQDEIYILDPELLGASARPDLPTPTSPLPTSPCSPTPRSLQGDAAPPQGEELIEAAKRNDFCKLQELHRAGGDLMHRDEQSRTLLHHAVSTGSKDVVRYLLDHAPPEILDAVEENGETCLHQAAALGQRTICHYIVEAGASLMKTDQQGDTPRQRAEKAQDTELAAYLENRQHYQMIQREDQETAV

| SMILES | IC50 (DGKz) | IC50 (DGKa) | EC50 (PBMC) |
| --- | --- | --- | --- |
| CC[C@H]1C[C@@H](Oc2ccc(OC(F)(F)F)cc2)CCN1c1nc(=O)n(C)c2ccc(C#N)nc12 [Compound 17] | 212 nM | 53 nM | 401 nM |
| CC[C@@H]1CN(c2nc(=O)n(C)c3ccc(C#N)nc23)[C@@H](C)CN1[C@H](CC)c1ccc(S(F)(F)(F)(F)F)cc1 (stereo in doubt) [Compound 61] | 180 nM | 128 nM | – |
| CC[C@@H]1CN(c2nc3nncn3c3ccc(C#N)nc23)[C@@H](C)CN1[C@H](CC)c1ccc(C(F)(F)F)cc1 (stereo in doubt) [Compound 82] | 454 nM | 2 nM | – |
| CC[C@H]1CN([C@H](CC)c2ccc(OC(F)(F)F)cc2)[C@H](CC)CN1c1nc2nncn2c2ccc(C#N)nc12 (stereo in doubt) [Compound 101] | 235 nM | 11 nM | – |
| CC[C@H]1C[C@H](c2nc3cc(C)ccc3o2)CCN1c1nc(=O)n(C)c2cc(OC3CCOC3)c(Cl)cc12 (single isomer, unassigned) [Compound 97] | 6 nM | 5 nM | – |
| CC[C@H]1C[C@@H](c2nc3cc(C)ccc3o2)CCN1c1nc(=O)n(C)c2cc(O[C@@H]3CCOC3)c(Cl)cc12 (single isomer, unassigned) [Compound 94] | 1300 nM | 140 nM | – |
| CC[C@@H]1CN(c2nc3nncn3c3ccc(C#N)nc23)[C@@H](C)CN1[C@@H](CC)c1ccc(SC(F)(F)F)cc1 (stereo in doubt) [Compound 66] | 53 nM | 4 nM | – |
| Cc1ccc2oc(C3CCN(c4nc(=O)n(C)c5cc(O[C@H]6CCOC6)c(Cl)cc45)CC3)nc2c1 [Compound 33] | 60 nM | 2 nM | – |
| CC[C@@H]1CN(c2nc3nncn3c3ccc(C#N)nc23)[C@@H](CC)CN1C(=O)c1ccc(C(F)(F)F)cc1 [Compound 84] | 1160 nM | 9 nM | – |
| CC[C@@H]1CN(c2nc(=O)n(C)c3ccc(C#N)nc23)[C@@H](C)CN1[C@H](c1ccc(F)cc1)c1ccc(SC(F)(F)F)cn1 [Compound 73] | 58 nM | 15 nM | – |
| CC[C@H]1CN([C@@H](CC)c2ccc(OC(F)(F)F)cc2)[C@H](CC)CN1c1nc2nncn2c2ccc(C#N)nc12 (single isomer, unassigned) [Compound 100] | 30 nM | 1 nM | – |
| CC[C@@H]1CN(c2nc3nncn3c3ccc(C#N)nc23)[C@@H](C)CN1[C@H](CC)c1ccc(S(F)(F)(F)(F)F)cc1 (stereo in doubt) [Compound 90] | 404 nM | 10 nM | – |
| CC[C@H]1CN([C@@H](C)c2ccc(S(F)(F)(F)(F)F)cc2)[C@H](CC)CN1c1nc(=O)n(C)c2ccc(C#N)nc12 (stereo in doubt) [Compound 62] | 132 nM | 35 nM | – |
| CC[C@H]1CN([C@@H](C)c2ccc(SC(F)(F)F)cc2)[C@H](CC)CN1c1nc2nncn2c2ccc(C#N)nc12 (stereo in doubt) [Compound 51] | 50 nM | 58 nM | – |
| CC[C@@H]1CN2c3c(c(=O)n(C)c4ccc(C#N)nc34)OC[C@@H]2CN1[C@H](CC)c1ccc(SC(F)(F)F)cc1 [Compound 124] | 114 nM | 6 nM | – |
| CC[C@H]1CN([C@H](C)c2ccc(S(F)(F)(F)(F)F)cc2)[C@H](CC)CN1c1nc(=O)n(C)c2ccc(C#N)nc12 (stereo in doubt) [Compound 63] | 639 nM | 16 nM | – |
| Cn1c(=O)nc(N2CCCc3c(C#CC4CC4)cccc32)c2nc(C#N)ccc21 [Compound 39] | 2050 nM | 1 nM | – |
| CC[C@H]1CN([C@H](CC)c2ccc(S(F)(F)(F)(F)F)cc2)[C@H](CC)CN1c1nc(=O)n2c3c(cc(C#N)nc13)OCC2 (stereo in doubt) [Compound 79] | 333 nM | 111 nM | – |
| CC[C@H]1CN([C@H](c2ccc(S(F)(F)(F)(F)F)cc2)C2CC2)[C@H](CC)CN1c1nc(=O)n(C)c2ccc(C#N)nc12 (stereo in doubt) [Compound 117] | 200 nM | 18 nM | – |
| CC[C@@H]1C[C@H](c2nc3cc(C)ccc3o2)CCN1c1nc(=O)n(C)c2cc(O[C@@H]3CCOC3)c(Cl)cc12 [Compound 92] | 6 nM | 227 nM | – |
| CC[C@@H]1C[C@H](c2nc3cc(C)ccc3o2)CCN1c1nc(=O)n(C)c2cc(O[C@H]3CCOC3)c(Cl)cc12 [Compound 91] | 6060 nM | 29 nM | – |
| CC[C@@H]1CN2c3c(c(=O)n(C)c4ccc(C#N)nc34)OC[C@@H]2CN1[C@@H](CC)c1ccc(SC(F)(F)F)cc1 [Compound 123] | 798 nM | 78 nM | – |
| CC[C@H]1CN([C@@H](c2ccc(S(F)(F)(F)(F)F)cc2)C2CC2)[C@H](CC)CN1c1nc(=O)n(C)c2ccc(C#N)nc12 (stereo in doubt) [Compound 118] | 610 nM | 22 nM | – |
| N#Cc1cc2c3c(n1)c(N1CCC4(CC1)CC(c1ccc(OC(F)(F)F)cc1)=NO4)nc(=O)n3CCO2 [Compound 59] | 162 nM | 28 nM | – |
| CC[C@@H]1CN(c2nc3nncn3c3ccc(C#N)nc23)[C@@H](C)CN1[C@@H](CC)c1ccc(S(F)(F)(F)(F)F)cc1 (stereo in doubt) [Compound 80] | 27 nM | 12 nM | – |
| CC[C@H]1CN([C@@H](C)c2ccc(S(F)(F)(F)(F)F)cc2)[C@H](CC)CN1c1nc2nncn2c2ccc(C#N)nc12 (stereo in doubt) [Compound 88] | 38 nM | 18 nM | – |
| CC[C@H]1CN([C@H](CC)c2ccc(S(F)(F)(F)(F)F)cc2)[C@H](CC)CN1c1nc(=O)n(C)c2ccc(C#N)nc12 [Compound 29] | 55 nM | 14 nM | – |

More lines, main results first:

| IC50 (DGKz) | IC50 (DGKa) | SMILES | EC50 (PBMC) |
| --- | --- | --- | --- |
| 607 nM | 24 nM | CC[C@H]1CN([C@H](c2ccc(SC(F)(F)F)cc2)c2nc(C3CC3)cs2)[C@H](CC)CN1c1nc(=O)n(C)c2ccc(C#N)nc12 [Compound 57] | – |
| 1570 nM | 10 nM | CC[C@H]1C[C@]2(CCN1c1nc(=O)n(C)c3ccc(C#N)nc13)CC(c1ccc(OC(F)(F)F)cc1)=NO2 (single isomer, unassigned) [Compound 74] | – |
| 660 nM | 253 nM | CC[C@@H]1C[C@@]2(CCN1c1nc(=O)n(C)c3ccc(C#N)nc13)CC(c1ccc(OC(F)(F)F)cc1)=NO2 (single isomer, unassigned) [Compound 75] | – |
| 116 nM | 10 nM | CC[C@H]1CN([C@H](C)c2ccc(S(F)(F)(F)(F)F)cc2)[C@H](CC)CN1c1nc2nncn2c2ccc(C#N)nc12 (stereo in doubt) [Compound 89] | – |
| 59 nM | 14 nM | CC[C@@H]1CN(c2nc(=O)n(C)c3ccc(C#N)nc23)[C@@H](C)CN1C(c1ccc(S(F)(F)(F)(F)F)cc1)c1nc(C2CC2)no1 (some centres unmarked) [Compound 65] | – |
| 53 nM | 3 nM | CC[C@H]1CN([C@H](c2ccc(SC(F)(F)F)cc2)c2nc(C3CC3)no2)[C@H](CC)CN1c1nc(=O)n(C)c2ccc(C#N)nc12 (stereo in doubt) [Compound 70] | – |
| 770 nM | 18 nM | CC[C@@H]1CN(c2nc3nncn3c3ccc(C#N)nc23)[C@@H](CC)CN1C(=O)Cc1ccc(C(F)(F)F)cc1 [Compound 85] | – |
| 93 nM | 2 nM | CC[C@H]1CN([C@H](CC)c2ccc(S(F)(F)(F)(F)F)cc2)[C@H](CC)CN1c1nc2nncn2c2ccc(C#N)nc12 [Compound 87] | – |
| 29 nM | 4 nM | CC[C@H]1CN([C@@H](CC)c2cccc(C(F)(F)F)c2)[C@H](CC)CN1c1nc2nncn2c2ccc(C#N)nc12 (stereo in doubt) [Compound 105] | – |
| > 10000 nM | 9 nM | Cc1ccc2oc(C3CCN(c4nc(=O)n(C)c5cc(O[C@@H]6CCOC6)c(Cl)cc45)CC3)nc2c1 [Compound 32] | – |
| 131 nM | 415 nM | CC[C@H]1CN([C@H](CC)c2cccc(S(F)(F)(F)(F)F)c2)[C@H](CC)CN1c1nc(=O)n(C)c2ccc(C#N)nc12 (stereo in doubt) [Compound 56] | – |
| 499 nM | 5 nM | CC[C@H]1CN([C@H](C)c2ccc(SC(F)(F)F)cc2)[C@H](CC)CN1c1nc2nncn2c2ccc(C#N)nc12 (stereo in doubt) [Compound 52] | – |
| 183 nM | 11 nM | CC[C@H]1CN([C@H](CC)c2ccc(C(F)(F)F)nc2)[C@H](CC)CN1c1nc2nncn2c2ccc(C#N)nc12 (stereo in doubt) [Compound 112] | – |
| 367 nM | 9 nM | CC[C@H]1CN([C@@H](c2ccc(SC(F)(F)F)cc2)c2nc(C3CC3)cs2)[C@H](CC)CN1c1nc(=O)n(C)c2ccc(C#N)nc12 [Compound 58] | – |
| 315 nM | 40 nM | CC[C@H]1CN([C@H]2CCCCc3cc(C(F)(F)F)ccc32)[C@H](CC)CN1c1nc(=O)n(C)c2ccc(C#N)nc12 [Compound 44] | – |
| 18 nM | 7 nM | CC[C@H]1CN([C@@H](CC)c2ccc(C(F)(F)F)nc2)[C@H](CC)CN1c1nc2nncn2c2ccc(C#N)nc12 (stereo in doubt) [Compound 111] | – |
| 2820 nM | 4 nM | CC[C@@H]1C[C@@H](c2nc3cc(C)ccc3o2)CCN1c1nc(=O)n(C)c2cc(OC3CCOC3)c(Cl)cc12 (stereo in doubt) [Compound 96] | – |
| 16 nM | 6 nM | CC[C@@H]1CN(c2nc3nncn3c3ccc(C#N)nc23)[C@@H](C)CN1[C@@H](CC)c1ccc(C(F)(F)F)cc1 (stereo in doubt) [Compound 81] | – |
| 58 nM | 926 nM | CC[C@@H]1C[C@H](Oc2ccc(OC(F)(F)F)cc2)CCN1c1nc(=O)n(C)c2ccc(C#N)nc12 [Compound 16] | – |
| 28 nM | 83 nM | CC[C@@H]1CN(c2nc(=O)n(C)c3ccc(C#N)nc23)[C@@H](C)CN1[C@@H](CC)c1ccc(S(F)(F)(F)(F)F)cc1 (stereo in doubt) [Compound 60] | – |
